From US12589087B2, “Enantiomer selective action on neurotransmission” (The Board of Trustees of the Leland Stanford Junior …, priority 2021, dated 2026)

Columns and labels:
[1] = test system: C57Bl/6 mice; assay: Chronic dosing behavioral tests (activity chamber, elevated plus maze, Y maze, Morris water maze, fear conditioning); type: in vivo, mouse; conditions: for body weight, activity chamber distance, elevated plus maze open arm time, Y maze alternation, Morris water maze learning / mortality: 10 mg/kg/day IP for a month; for fear conditioning, contextual recall on Day 2: 10 mg/kg/day IP, week 4
Procedure: Dosing: (R)-2MeGlu (10 mg/kg), (S)-2MeGlu (10 mg/kg), rac-2MeGln (10 mg/kg), and vehicle (PBS) were administered IP at 10 ml/kg dosing volume daily. The first dose was administered one week prior to behavioral tests and continued for four weeks during the behavioral testing.
Activity Chamber Open Field: The assessment took place in an Open Field Activity Arena as described above for 30 min. The Arena was cleaned with a 1% Virkon solution at the end of the trial. Activity chamber open field assessment was conducted after one week of exposure to compounds or vehicle.
Elevated Plus Maze: The maze was made of acrylonitrile butadiene styrene (ABS) plastic and had two open arms and two close arms that were 30 cm long and 5 cm wide. The center area where the open and close arms meet was 5 cm×5 cm. The open arms had 2 mm lips at the edges, and the closed arms had 15 cm opaque walls. The maze was elevated 50 cm and surrounded by privacy blinds during the test. The maze was illuminated to 7 lux using red light throughout the test. Each mouse was released in the center of the maze and given 5 min to explore the maze. Duration and frequency in each zone of the maze were recorded using Ethovision (Noldus Information Technology, Wageningen, the Netherlands) tracking software. The maze was cleaned with a 1% Virkon solution at the end of the trial. Elevated plus maze was conducted after one week of exposure to compounds or vehicle.
Y Maze Spontaneous Alternation: The Y maze is made of plastic with 3 arms in a “Y” shape. The arms are labelled as Arm A, B, and C; Arm A is 20.32 cm (L)×5 cm (W) 12.7 cm (H), Arm B and C are 15.24 cm (L)×5 cm (W), and 12.7 cm (H). The test is based on the willingness of rodents to explore a novel environment and designed to measure spontaneous alternations in rodents. Each mouse was placed in the center of the maze facing Arm B. The first entry was excluded from data analysis because the animals were led to the initial arm entry by the experimenter. Using an overhead camera, the number of arm entries and alternations were recorded for 5 minutes. An arm entry is when all four paws enter into a new arm of the maze. The apparatus was cleaned with 1% Virkon. Parameters recorded were % alternation and the total number of entries into arms. The Y maze test was conducted after two weeks of exposure to compounds or vehicle.
Morris Water Maze: During the Hidden Platform Training (HPT), mice were given 2 trials, with 1-minute inter-trial-intervals (ITIs) in a circular water tank (172 cm diameter) filled with opaque water at 22.0±1.5° C. Nontoxic tempera paint was used to make the water opaque. A circular platform (17 cm diameter) was submerged 1 cm below the water's surface and placed in one of the four quadrants of the pool (Quadrant 2). The release locations into the pool were randomly chosen to prevent spatial bias and the platform was also relocated during reversal training. We conducted 3 days of training with 2 trials each day for a total of the 6 trials prior to probe 1 (Days 1 to 3). Specifically, mice were given a maximum of 60 s to find the submerged platform per trial. […] After remaining on the platform for 15 s, mice were removed from the platform and placed in a dry cage with a paper towel. This process was repeated for 3 days. On the following day (˜24 hours after the last training trial), the platform was removed from the pool, and a 60 s probe trial was conducted. After acquiring the data for the probe trial, the platform was replaced at the same location, and the mice were given additional two trials of training. Three days (˜72 hours) after the last training trial, a second probe trial was conducted. The platform was relocated to a new quadrant (Quadrant 4) after the second probe trial, and the animals were trained in Reversal Hidden Platform Training (RHPT). The procedures for RHPT were identical to HPT and were conducted for 3 days (Days 7 to 9). A third probe trial was conducted on the following day (˜24 hr). […]

[2] = Pharmacokinetics of 2MeGlu and 2MeGln in mice; type: in vivo; conditions: 100 mg/kg IP, mouse brain; for time of peak brain concentration: for rac-2MeGln: 2MeGln
Procedure: C57BL/6 mice (Jackson Laboratory cat. no. 000664) were administered 100 mg/kg IP. […] Whole brain was promptly dissected and one half frozen at −80° C. until homogenization in ice cold PBS (pH 7.4) using a probe ultrasonic homogenizer (Branson Sonifier 450, Power: 5, Cycle: 30%, time: 10 s) on ice. The lysate was centrifuged (2,500 g for 15 min at 4° C.) and the supernatant was assayed using Pierce BCA Protein Assay Kit (23225) using BioTek Epoch plate spectrophotometer by recording absorbance at 562 nm. Two or three 10 μL aliquots of the homogenate were transferred to a 96 well plate and extracted with 190 μL of 60% acetonitrile in water containing 10 μM GABA-d6 or 10 μM Glu-d5 and Gln-d5 as internal standards. 40 μL aliquots of the extracts were then diluted with 120 μL of acetonitrile and prepared for LC-MS/MS analysis. Brain and serum half-lives were calculated using the ‘PKNCA’ package for R. Endogenous levels of Glu, Gln and GABA were determined in the brains of mice used in the pharmacokinetics experiment. MRM transitions specific for Glu, Gln and GABA were monitored simultaneously.

| SMILES | body weight, activity chamber distance, elevated plus maze open arm time, Y maze alternation, Morris water maze learning [1] | mortality [1] | fear conditioning, contextual recall on Day 2 [1] | maximum brain concentration [2] [pmol/mg protein] | time of peak brain concentration [2] [min] | half-life ([2]; C57BL/6) [min] |
| --- | --- | --- | --- | --- | --- | --- |
| C[C@@](N)(CCC(=O)O)C(=O)O [(R)-2MeGlu, (R)-2-methylglutamic acid] | no significant effect of treatment | no mortality | no significant effect of treatments | 30 | ≤ 5 | ~70 |
| CC(N)(CCC(N)=O)C(=O)O (racemic) [rac-2MeGln, rac-2-methylglutamine] | no significant effect of treatment | no mortality | no significant effect of treatments |  | 25 |  |
| C[C@](N)(CCC(=O)O)C(=O)O [(S)-2MeGlu, (S)-2-methylglutamic acid] | no significant effect of treatment | no mortality | no significant effect of treatments | 50 | 25 |  |
